The results in this text go back to patent US4395401A, “Renally active dipeptides” (SmithKline Beckman Corporation, priority 1981, dated 1983).

Assay [1] deals with anesthetized dogs. Kind of assay: Infusion to anesthetized dogs, measuring renal blood flow and renal vascular resistance (procedure of U.S. Pat. No. 4,197,297). Type of assay: in vivo, dog. An excerpt:
Specific results are included in the examples.

Assay [2] relates to anesthetized dogs. Kind of assay: Secondary testing (ED15). It counts as in vivo, dog.
The mark [3] stands for this setting: infusion 30 μg/kg/min, anesthetized dog.
Where [4] appears, read: infusion 300 μg/kg/min, anesthetized dog.
Where [5] appears, read: 300 μg/kg/min, anesthetized dog.
The mark [6] stands for this setting: infusion at 30 and 300 μg/kg/min.

For `CC(Cc1ccc(O)cc1)(NC(=O)[C@@H]1CCCN1C(=O)CCCc1ccc(O)cc1)C(=O)NCCCN.Cl` (stereo partly drawn) [Example 4, N-4-(4'-hydroxyphenylbutyryl)-L-prolyl-D,L-α-methyltyrosine ω-aminopropylamide, hydrochloride], in assay [1] (3 μg/kg/min, anesthetized dog), the “decrease of renal vascular resistance” value is on record as -9.5 and the “increase of renal blood flow” value is listed as “+8.5”.
On to `CC(=O)O.C[C@@](Cc1ccccc1)(NC(=O)[C@@H]1CCCN1C(=O)CCCc1ccc(O)cc1)C(=O)N[C@@H](CCCNC(=N)N)C(=O)O.O` [Example 6, N-4-(4'-hydroxyphenyl)-butyryl-L-prolyl-D,L-α-methylphenylalanyl-L-arginine 1.5HOAc.1H2 O], for which the “increase of renal blood flow” value in assay [1] (setting [3]) is on record as “+12%”; in assay [1] (setting [4]), “+11%”.
For the compound `CC(=O)O.CC(Cc1ccc(O)cc1)(NC(=O)[C@@H]1CCCN1C(=O)CCCc1ccc(O)cc1)C(=O)N[C@@H](CCCNC(=N)N)C(=O)O` (stereo partly drawn) [Example 3, N-4-(4'-hydroxyphenyl)-butyryl-L-prolyl-D,L-α-methyltyrosyl-L-arginine acetic acid salt], the “decrease of renal vascular resistance” value is recorded as -12 in assay [1] (3 μg/kg/min, anesthetized dog); -11 in assay [1] (setting [5]); -9 in assay [1] (setting [3]). Moreover, the “increase of renal blood flow” value in assay [1] (3 μg/kg/min, anesthetized dog) is reported as “+8.0”; in assay [1] (30 μg/kg/min, anesthetized dog), “+12.0”; in assay [1] (setting [5]), “+11.0”. In addition, the “increase of renal blood flow after a cumulative dose” value in assay [1] (cumulative dose at 3, 30 and 300 μg/kg/min) turned out to be 28%.
With `COc1ccc(CC(C)(NC(=O)[C@@H]2CCCN2C(=O)CCCc2ccc(O)cc2)C(=O)NCCCN)cc1OC.Cl` (stereo partly drawn) [Example 2, N-4-(4'-hydroxyphenyl)-butyryl-L-prolyl-D,L-α-methyl-3,4-dimethoxyphenylalanine 3-aminopropylamide hydrochloride], in assay [1] (infusion 3 μg/kg/min), the “decrease of renal vascular resistance” value was -11% and the “increase of renal blood flow” value was “+13.5%”. In assay [1] (setting [6]), the “renal blood flow (in words)” value is “increased renal blood” and the “renal vascular resistance (in words)” value is “decreased renal vascular resistance”.
With `NCCc1ccc(O)c(O)c1` [Dopamine, reference compound], the ED15 in assay [2] is 0.0035 mg/kg.
For `CC(=O)O.COc1ccc(CC(C)(NC(=O)[C@@H]2CCCN2C(=O)CCCc2ccc(O)cc2)C(=O)N[C@@H](CCCNC(=N)N)C(=O)O)cc1OC` (stereo partly drawn) [Example 1, N-4-(4'-hydroxyphenyl)-butyryl-L-prolyl-D,L-α-methyl-3,4-dimethoxyphenylalanyl-L-arginine acetic acid salt], in assay [1] (setting [3]), the “decrease of renal vascular resistance” value was -21.3 and the “increase of renal blood flow” value is given as “+18%”. The same compound showed an ED15 in assay [2] of 0.506 mg/kg.
As for `CC(Cc1ccccc1)(NC(=O)[C@@H]1CCCN1C(=O)CCCc1ccc(O)cc1)C(=O)NCCCN.Cl` (stereo partly drawn) [Example 5, N-4-(4'-hydroxyphenylbutyryl)-L-prolyl-D,L-α-methylphenylalanine ω-aminopropylamide, hydrochloride], the cumulative drug effect entry in assay [1] (infused in anesthetized dogs) is on record as “demonstrated a cumulative drug effect”. The “increase of renal blood flow” value in assay [1] (setting [4]) is “+11.7%”. Also, the “decrease of vascular renal resistance” value in assay [1] (infusion 300 μg/kg/min, anesthetized dogs) was found to be 11.3%.
